Measurements reported in ChEMBL document CHEMBL1909046, “DrugMatrix in vitro pharmacology data”.

Legend:
[1] = target: Protein phosphatase 3 catalytic subunit alpha (Homo sapiens, UniProt Q08209); set-up: species or system Escherichia coli;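 note: inhibition of calcineurin (PP2B) enzyme activity, measured with DiFMUP as the substrate; in other assays of this panel Not Active means under 50% inhibition at 10 µM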
[2] = target: T1, Muscarinic acetylcholine receptor M2 (Homo sapiens, UniProt P08172); assay type: cell membranes, CHO-K1, Membrane; settings: cho-k1; note: in other assays of this panel Not Active means under 50% inhibition at 10 µM
T1 sequence (P08172 whole entry): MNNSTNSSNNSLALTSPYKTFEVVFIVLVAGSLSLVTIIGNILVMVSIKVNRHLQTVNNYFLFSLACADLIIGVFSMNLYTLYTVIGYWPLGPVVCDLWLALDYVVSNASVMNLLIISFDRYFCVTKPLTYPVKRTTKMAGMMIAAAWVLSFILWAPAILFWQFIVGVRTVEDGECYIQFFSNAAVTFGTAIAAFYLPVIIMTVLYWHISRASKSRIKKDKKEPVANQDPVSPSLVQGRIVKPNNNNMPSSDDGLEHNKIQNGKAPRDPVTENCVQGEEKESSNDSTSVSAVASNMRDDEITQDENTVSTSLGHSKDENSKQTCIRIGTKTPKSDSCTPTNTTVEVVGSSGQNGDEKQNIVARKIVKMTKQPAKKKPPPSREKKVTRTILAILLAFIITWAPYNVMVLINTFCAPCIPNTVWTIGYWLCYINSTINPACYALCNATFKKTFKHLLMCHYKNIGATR

[3] = DRUGMATRIX: Phorbol Ester radioligand binding (ligand: [3H] PDBu); assay type: cell membranes, Mus musculus, ICR, Brain, Membrane; settings: Not Active = under 50% inhibition at 10 µM
[4] = target: T2, Neuropeptide Y receptor type 2 (Homo sapiens, UniProt P49146); assay type: cell membranes, Membrane; settings: kan-ts; note: in other assays of this panel Not Active means under 50% inhibition at 10 µM
T2 sequence (P49146 whole entry): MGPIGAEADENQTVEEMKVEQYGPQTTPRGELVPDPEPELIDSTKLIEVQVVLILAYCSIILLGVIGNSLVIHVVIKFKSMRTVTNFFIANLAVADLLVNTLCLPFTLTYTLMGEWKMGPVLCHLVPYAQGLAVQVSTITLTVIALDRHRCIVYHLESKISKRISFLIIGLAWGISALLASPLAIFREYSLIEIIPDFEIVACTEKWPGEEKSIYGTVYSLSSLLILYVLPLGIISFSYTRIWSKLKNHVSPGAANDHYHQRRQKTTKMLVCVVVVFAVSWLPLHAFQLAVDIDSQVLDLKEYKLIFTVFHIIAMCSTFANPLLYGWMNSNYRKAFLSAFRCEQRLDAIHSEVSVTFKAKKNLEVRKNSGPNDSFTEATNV

[5] = DRUGMATRIX: ATPase, Na+/K+ enzyme inhibition (substrate: ATP); assay type: tissue-based, Sus scrofa, Heart; settings: Not Active = under 50% inhibition at 10 µM
[6] = DRUGMATRIX: Glutamate, Kainate radioligand binding (ligand: [3H] Kainic acid); assay type: cell membranes, Rattus norvegicus, Wistar, Brain, Membrane; settings: Not Active = under 50% inhibition at 10 µM
Substance-K receptor = target: T3, Substance-K receptor (Homo sapiens, UniProt P21452); assay type: cell membranes, CHO, Membrane; settings: cho; note: in other assays of this panel Not Active means under 50% inhibition at 10 µM
T3 sequence (P21452 whole entry): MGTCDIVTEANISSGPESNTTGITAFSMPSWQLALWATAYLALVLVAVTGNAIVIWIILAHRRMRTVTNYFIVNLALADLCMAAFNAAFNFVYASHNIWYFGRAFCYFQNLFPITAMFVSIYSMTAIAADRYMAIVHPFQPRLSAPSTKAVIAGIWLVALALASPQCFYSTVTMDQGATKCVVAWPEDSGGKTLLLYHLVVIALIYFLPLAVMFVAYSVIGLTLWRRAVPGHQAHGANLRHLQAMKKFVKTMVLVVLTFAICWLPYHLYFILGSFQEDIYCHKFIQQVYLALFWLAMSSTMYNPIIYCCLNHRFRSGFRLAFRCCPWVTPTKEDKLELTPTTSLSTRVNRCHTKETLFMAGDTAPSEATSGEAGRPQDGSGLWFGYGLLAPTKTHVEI

[7] = DRUGMATRIX: Tumor Necrosis Factor (TNF), Non-Selective radioligand binding (ligand: [125I] TNF-alpha); assay type: cell membranes, Membrane; settings: u-937; Not Active = under 50% inhibition at 10 µM
[8] = target: Aldo-keto reductase family 1 member B1 (Rattus norvegicus, UniProt P07943); assay type: tissue-based, Lens of camera-type eye
Cannabinoid receptor 1 = Cannabinoid receptor 1 (Homo sapiens, UniProt P21554); assay type: cell membranes, Membrane; settings: chem-1; note: in other assays of this panel Not Active means under 50% inhibition at 10 µM
Cannabinoid receptor 1, sequence (P21554 whole entry): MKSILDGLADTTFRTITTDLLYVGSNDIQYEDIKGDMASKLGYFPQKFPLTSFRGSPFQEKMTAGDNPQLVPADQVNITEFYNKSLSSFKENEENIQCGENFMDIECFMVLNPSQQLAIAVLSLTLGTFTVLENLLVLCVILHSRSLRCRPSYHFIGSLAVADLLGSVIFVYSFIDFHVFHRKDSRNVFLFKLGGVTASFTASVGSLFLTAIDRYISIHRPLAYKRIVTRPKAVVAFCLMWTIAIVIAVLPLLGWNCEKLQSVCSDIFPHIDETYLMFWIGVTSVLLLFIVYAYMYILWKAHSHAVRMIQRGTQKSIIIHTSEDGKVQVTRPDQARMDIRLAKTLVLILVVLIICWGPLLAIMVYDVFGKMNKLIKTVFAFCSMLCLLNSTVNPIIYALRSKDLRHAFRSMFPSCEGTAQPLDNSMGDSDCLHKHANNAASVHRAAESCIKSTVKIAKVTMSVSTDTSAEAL

[9] = DRUGMATRIX: Potassium Channel [KATP] radioligand binding (ligand: [3H] Glyburide); assay type: cell membranes, Membrane; settings: hit-t15; Not Active = under 50% inhibition at 10 µM
Melanocortin receptor 4 = Melanocortin receptor 4 (Homo sapiens, UniProt P32245); assay type: cell membranes, Membrane; settings: hek293; note: in other assays of this panel Not Active means under 50% inhibition at 10 µM
Melanocortin receptor 4, sequence (P32245 whole entry): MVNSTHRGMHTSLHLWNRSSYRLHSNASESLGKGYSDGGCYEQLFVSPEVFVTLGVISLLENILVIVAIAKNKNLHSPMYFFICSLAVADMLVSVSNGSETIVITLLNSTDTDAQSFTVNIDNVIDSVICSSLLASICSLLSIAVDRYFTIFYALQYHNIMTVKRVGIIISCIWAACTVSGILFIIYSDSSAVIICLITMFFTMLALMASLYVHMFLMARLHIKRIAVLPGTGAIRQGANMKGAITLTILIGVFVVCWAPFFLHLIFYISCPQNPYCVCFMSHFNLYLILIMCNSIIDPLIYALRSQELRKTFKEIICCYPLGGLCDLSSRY

[10] = DRUGMATRIX: GABAA, Muscimol, Central radioligand binding (ligand: [3H] Muscimol); assay type: cell membranes, Rattus norvegicus, Wistar, Brain, Membrane; settings: Not Active = under 50% inhibition at 10 µM
[11] = target: Protein kinase C alpha type (Homo sapiens, UniProt P17252); assay type: cell-based; settings: sf9
Melanocortin receptor 5 = Melanocortin receptor 5 (Homo sapiens, UniProt P33032); assay type: cell membranes, HEK293, Membrane; settings: hek293; note: in other assays of this panel Not Active means under 50% inhibition at 10 µM
Melanocortin receptor 5, sequence (P33032 whole entry): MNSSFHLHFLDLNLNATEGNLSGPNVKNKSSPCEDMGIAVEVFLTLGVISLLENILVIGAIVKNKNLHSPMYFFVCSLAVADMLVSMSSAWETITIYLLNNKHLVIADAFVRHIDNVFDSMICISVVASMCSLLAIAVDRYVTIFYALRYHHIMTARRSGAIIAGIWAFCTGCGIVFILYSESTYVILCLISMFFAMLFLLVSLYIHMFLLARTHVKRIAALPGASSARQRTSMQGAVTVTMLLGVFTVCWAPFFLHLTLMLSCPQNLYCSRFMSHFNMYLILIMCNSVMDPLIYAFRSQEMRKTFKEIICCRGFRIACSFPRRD

[12] = target: 5-hydroxytryptamine receptor 1B (Rattus norvegicus, UniProt P28564); assay type: cell membranes, Wistar, Cerebral cortex, Membrane; note: in other assays of this panel Not Active means under 50% inhibition at 10 µM
5-hydroxytryptamine receptor 1B, sequence (P28564 whole entry): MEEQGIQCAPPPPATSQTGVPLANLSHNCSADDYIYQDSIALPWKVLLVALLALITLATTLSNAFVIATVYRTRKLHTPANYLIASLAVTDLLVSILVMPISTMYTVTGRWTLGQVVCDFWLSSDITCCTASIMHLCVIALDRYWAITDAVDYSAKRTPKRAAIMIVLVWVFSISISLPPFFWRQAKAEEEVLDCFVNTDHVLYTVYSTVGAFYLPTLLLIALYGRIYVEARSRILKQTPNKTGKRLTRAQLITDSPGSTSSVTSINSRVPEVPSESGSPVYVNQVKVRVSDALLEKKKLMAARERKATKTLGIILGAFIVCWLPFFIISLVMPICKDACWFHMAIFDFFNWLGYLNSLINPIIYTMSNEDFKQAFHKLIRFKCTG

[13] = target: T4, Vasoactive intestinal polypeptide receptor 1 (Homo sapiens, UniProt P32241); assay type: cell membranes, Membrane; settings: ht-29; note: in other assays of this panel Not Active means under 50% inhibition at 10 µM
T4 sequence (P32241 whole entry): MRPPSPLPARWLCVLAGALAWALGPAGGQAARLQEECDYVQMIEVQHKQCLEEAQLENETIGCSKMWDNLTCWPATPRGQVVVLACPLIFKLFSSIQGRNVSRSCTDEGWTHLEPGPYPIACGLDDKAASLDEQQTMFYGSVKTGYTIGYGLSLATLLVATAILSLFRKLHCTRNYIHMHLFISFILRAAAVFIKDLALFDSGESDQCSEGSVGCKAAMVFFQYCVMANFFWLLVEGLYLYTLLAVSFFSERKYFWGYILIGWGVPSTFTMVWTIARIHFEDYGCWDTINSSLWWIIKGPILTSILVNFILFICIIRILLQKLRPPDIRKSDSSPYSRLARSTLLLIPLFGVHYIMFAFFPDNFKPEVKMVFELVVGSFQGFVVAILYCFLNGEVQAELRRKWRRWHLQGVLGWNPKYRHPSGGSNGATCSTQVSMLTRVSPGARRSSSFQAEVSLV

NC(=O)c1ncn([C@@H]2O[C@H](CO)[C@@H](O)[C@H]2O)n1 [RIBAVIRIN]
Not Active: IC50 [1] | IC50 [2] | IC50 [3] | Ki [3] | IC50 [4] | IC50 [5] | Ki [5] | IC50 [6] | Ki [6] | IC50 (Substance-K receptor) | IC50 [7] | Ki [7] | IC50 [8] | IC50 (Cannabinoid receptor 1) | IC50 [9] | Ki [9] | IC50 (Melanocortin receptor 4) | IC50 [10] | Ki [10] | IC50 [11] | IC50 (Melanocortin receptor 5) | IC50 [12] | IC50 [13]

O=[N+]([O-])c1cc([As](=O)(O)O)ccc1O [ROXARSONE]
Not Active: IC50 [1] | Ki [1] | IC50 [2] | Ki [2] | IC50 [3] | Ki [3] | IC50 [4] | Ki [4] | IC50 [5] | Ki [5] | IC50 [6] | Ki [6] | IC50 (Substance-K receptor) | Ki (Substance-K receptor) | IC50 [7] | Ki [7] | IC50 [8] | Ki [8] | IC50 (Cannabinoid receptor 1) | Ki (Cannabinoid receptor 1) | IC50 [9] | Ki [9] | IC50 (Melanocortin receptor 4) | Ki (Melanocortin receptor 4) | IC50 [10] | Ki [10] | IC50 [11] | Ki [11] | IC50 (Melanocortin receptor 5) | Ki (Melanocortin receptor 5) | IC50 [12] | Ki [12] | IC50 [13] | Ki [13]

CC[C@H]1OC(=O)[C@H](C)[C@@H](O[C@H]2C[C@@](C)(OC)[C@@H](O)[C@H](C)O2)[C@H](C)[C@@H](O[C@@H]2O[C@H](C)C[C@H](N(C)C)[C@H]2O)[C@](C)(O)C[C@@H](C)/C(=N\OCOCCOC)[C@H](C)[C@@H](O)[C@]1(C)O [ROXITHROMYCIN]
Not Active: IC50 [1] | IC50 [2] | IC50 [3] | Ki [3] | IC50 [4] | IC50 [5] | Ki [5] | IC50 [6] | Ki [6] | IC50 (Substance-K receptor) | IC50 [7] | Ki [7] | IC50 [8] | IC50 (Cannabinoid receptor 1) | IC50 [9] | Ki [9] | IC50 (Melanocortin receptor 4) | IC50 [10] | Ki [10] | IC50 [11] | IC50 (Melanocortin receptor 5) | IC50 [12] | IC50 [13]

NC(=O)c1ccccc1O [SALICYLAMIDE]
Not Active: IC50 [1] | IC50 [2] | IC50 [3] | Ki [3] | IC50 [4] | IC50 [5] | Ki [5] | IC50 [6] | Ki [6] | IC50 (Substance-K receptor) | IC50 [7] | Ki [7] | IC50 [8] | IC50 (Cannabinoid receptor 1) | IC50 [9] | Ki [9] | IC50 (Melanocortin receptor 4) | IC50 [10] | Ki [10] | IC50 [11] | IC50 (Melanocortin receptor 5) | IC50 [12] | IC50 [13]
